Like-named read-outs stand apart in the source and are kept apart here.
Experiments:
[1] = test system: CD10 transfected CHO cells, Clone #3; experiment: 3H thymidine proliferation assay, CD10 transfected CHO Clone #3; format: cell-based, Chinese Hamster; settings: Cricetulus griseus, Table 25
Method: The fully assembled coding region was sub-cloned into a mammalian expression vector, downstream of the hCMV-MIE promoter. DNA sequence analysis confirmed sequence identity with the coding sequence of human CD10 (Genbank accession number Y00811). The expression plasmid was linearized and stably transfected into CHO—S cells. CD10 expressing transfectant clones were selected under 500 ug/mL of hygromycin and screened by flow cytometry for cell-surface CD10 expression using a commercially available anti-CD10-FITC antibody.

in vivo = settings: female, ICR, mouse, iv, 10 umol/kg
Method: (§2) Plasma was obtained from three individual animals in each group at 5 minutes, 1, 2, 4, or 6 hr.

[2] = test system: 22 RV1 (prostate carcinoma) cells; experiment: 3H-thymidine incorporation, 22RV1 cells; format: cell-based; settings: Homo sapiens, Table 6, 48 hours, read-out: IC50 22RV1 CD10−PSA+
Method: Adherent cells, LNCaP (prostate carcinoma), PC-3 (prostate carcinoma) and 22 RV1 (prostate carcinoma), were cultured in DMEM media containing 10% heat inactivated fetal calf serum (FCS). On the day of the study the cells were detached from the plate with a trypsin solution. The collected cells were washed and resuspended at a concentration of 0.25×10^6 cells/ml in DMEM containing 10% FCS. 100 μl of cell suspension were added to 96 well plates and the plates were incubated for 3 hours to allow the cells to adhere. […] The plates were then incubated for 24 hours, pulsed with 1:0 μl of a 100 μCi/ml ^3H-thymidine and incubated for an additional 24 hours (total incubation time 48 hours). The plates were harvested using a 96 well Harvester (Packard Instruments) and counted on a Packard Top Count Counter. Four parameter logistic curves were fitted to the ^3H-thymidine incorporation as a function of drug molarity using Prism software to determine IC50 values.

normal mice = settings: mouse, in vivo; cited from earlier work
[3] = test system: human colon carcinoma (HT-29) xenograft; settings: 4.0 mg/kg every 7 days for 5 doses
Excerpt: Healthy young male nude mice were subcutaneously injected with 5 million of HT-29 cells.

[4] = Metabolism and clearance in normal mice (plasma and urine, LC MS/MS); format: in vivo; settings: after Suc-βAla-Ile-Ala-Leu-Dox 117 mg/kg
[5] = test system: HL60 cells (CD10 negative); experiment: Proliferation of HL60 cells with supernatant from compound-treated CHO cells; format: cell-based; settings: Homo sapiens
Excerpt: Confirmation of the data is shown when Suc-βAla-Leu-Ala-Leu-Dox was compared to Suc-Leu-Ala-Gly-Dox and the results are consistent with the fact that Suc-βAla-Leu-Ala-Leu is cleaved by CD10 transfected cells and not by the parental cell lines.

[6] = test system: colorectal carcinoma LS174t xenograft; experiment: LS174t xenograft efficacy; format: in vivo, nude mice; settings: for Mean Day of Survival (MDS): animals whose tumors reached 1.5 g prior to Day 60; for long-term survivors: up to 60 days
Excerpt: There were 4 and 2 long-term survivors in the low and high dose groups, respectively, compared with 0 in the vehicle control group.

Parental CHO cells = experiment: Conversion to Leu-Dox or Gly-Dox in cell supernatants, parental CHO; format: cell-based, Chinese Hamster; settings: 10 μM, 37° C.
Method: (§1) To directly ask the question of whether the CD10 expressing cells were capable of cleaving the prodrug, supernatants from CD10 transfected or parental CHO cells treated with the compounds were collected. […] After incubation for 1, 4, and 24 hours, an aliquot of each supernatant was transferred to a 96-well plate and frozen at −20° C. Samples were subsequently thawed and analyzed by reversed phase HPLC (4.6×50 mm 21 TSK Super-ODS column) with fluorescence detection after dilution with 3 volumes of acetonitrile, removal of precipitate by centrifugation, and further dilution into 3 volumes of water. When incubated with Suc-βAla-Leu-Ala-Leu-Dox, there was no detectable metabolism to Leu-Dox observed with the parental cell line while clone 8 (CD10 transfected) generated significant levels of Leu-Dox from Suc-βAla-Leu-Ala-Leu-Dox (Table 27).

[7] = test system: CD10 transfected CHO cells (clone 8); experiment: Conversion to Leu-Dox or Gly-Dox in cell supernatants, CD10 transfected CHO; format: cell-based, Chinese Hamster; settings: Clone 8 (CD10 transfected), 10 μM, 37° C.
Method: as §1

[8] = mouse, in vivo, iv, 100 umol/kg
Method: as §2

[9] = Second single dose Maximum Tolerated Dose (SD-MTD) study, 49 days; settings: mouse, in vivo, iv
Method: In a second single dose Maximum Tolerated Dose (SD-MTD) study, groups of five normal ICR mice were administered intravenous bolus doses of Suc-βAla-Leu-Ala-Leu-Dox. The mice were observed daily for 49 days and body weights measured twice weekly.
In a second single dose Maximum Tolerated Dose (SD-MTD) study, groups of five normal ICR mice were administered intravenous bolus doses of Suc-Leu-Ala-Leu-Dox. The mice were observed daily for 49 days and body weights measured twice weekly.
In a second single dose Maximum Tolerated Dose (SD-MTD) study, groups of five normal ICR mice were administered intravenously bolus doses of Suc-Ile-Ala-Leu-Dox. The mice were observed daily for 49 days and body weights measured twice weekly.
In a second single dose Maximum Tolerated Dose (SD-MTD) study, groups of five normal ICR mice were administered intravenous bolus doses of Suc-βAla-Ile-Ala-Leu-Dox. The mice were observed daily for 49 days and body weights measured twice weekly.

COc1cccc2c1C(=O)c1c(O)c3c(c(O)c1C2=O)C[C@@](O)(C(=O)CO)C[C@@H]3O[C@H]1C[C@H](N)[C@H](O)[C@H](C)O1 [Doxorubicin, reference compound]
IC50 [1]: 0.55 µM
AUC(0-t) (in vivo): 3.3 µM·h
IC50 [2]: 0.03 µM
MTD of doxorubicin alone, estimated from the standard safe efficacious dose (normal mice): 4 mg/kg
% TGI (Day 14, mean) [3]: 9.3%
% TGI (Day 25, median) [3]: 30.9%
Calculated Mean Day of Survival [3]: 30.0 ± 3.7 days
Extension of Mean Day of Survival over controls [3]: 16.7%
Mean Tumor Weight at Day 14 [3]: 665 ± 103 mg
Median Tumor Weight at Day 25 [3]: 1046 mg
Number of Long Term Survivors [3]: 0/10
Calculated Mean Day of Survival ([3]; listed as doxorubicin): 30 days
Urine (% adm. dose) 2 hr ([4]; collected 0-2 hours): 0.21 % adm. dose
Urine (% adm. dose) 24 hr ([4]; collected 2-24 hours): 0.51 % adm. dose
IC50 ([5]; HL-60, 24 h, HL60 fresh compound, 24 hours): 0.164 µM
IC50 ([5]; HL-60, 24 h, supernatant of Parental CHO, collected 24 hours after exposure): 0.279 µM
IC50 ([5]; HL-60, supernatant of Clone 8 (CD10 Pos.)): 0.488 µM
IC50 ([5]; HL-60, supernatant of Clone 10 (CD10 Neg.)): 0.417 µM
IC50 ([5]; HL-60, supernatant of Clone DB4 (CD10 Pos.)): 0.491 µM

CC[C@H](C)[C@H](NC(=O)CCNC(=O)CCC(=O)O)C(=O)N[C@@H](C)C(=O)N[C@@H](CC(C)C)C(=O)N[C@H]1C[C@H](O[C@H]2C[C@](O)(C(=O)CO)Cc3c(O)c4c(c(O)c32)C(=O)c2c(OC)cccc2C4=O)O[C@@H](C)[C@H]1O [Suc-βAla-Ile-Ala-Leu-Dox]
Mean Day of Survival (MDS) ([6]; 53 mg/kg Q5DX5): 29.7 days
long-term survivors ([6]; 53 mg/kg i.v. Q5DX5, groups of ten): 4
Mean Day of Survival (MDS) ([6]; 68 mg/kg Q5DX5): 23.4 days
long-term survivors ([6]; 68 mg/kg i.v. Q5DX5, groups of ten): 2

COc1cccc2c1C(=O)c1c(O)c3c(c(O)c1C2=O)C[C@@](O)(C(=O)CO)C[C@@H]3O[C@H]1C[C@H](NC(=O)[C@H](CC(C)C)NC(=O)[C@H](C)NC(=O)[C@H](CC(C)C)NC(=O)CCNC(=O)CCC(=O)O)[C@H](O)[C@H](C)O1 [Suc-βAla-Leu-Ala-Leu-Dox]
Conversion rate to Leu-Dox or Gly-Dox (Parental CHO cells): 0 mM/h
Percent Conversion/Hour to Leu-Dox or Gly-Dox (Parental CHO cells): 0 Percent Conversion/Hour
Conversion rate to Leu-Dox or Gly-Dox [7]: 0.30 mM/h
Percent Conversion/Hour to Leu-Dox or Gly-Dox [7]: 3.00 Percent Conversion/Hour
AUC(0-t) [8]: 806 µM·h
MTD [9]: 50 mg/kg

Source: patent publication US20050267016A1, “CD-10 activated prodrug compounds” (priority 2001, published 2005)
